# In patent publication US6103766A, “Phenylsulfonamide-phenylethylamines useful as dopamine receptors” (Pharmacia & Upjohn Company, priority 1999, dated 2000):
# Values joined by “and” are separate entries in the source; they are usually repeats but may differ in a detail not shown here. Equal values may be shown once. Read-outs that look alike come from different tables or passages of the source.
# Columns and labels:
# [1] = target: T1, dopamine D3 receptor (Rattus norvegicus, UniProt P19020); test: Competition binding at cloned rat dopamine D3 receptor (D3-DOP-CLONE) with [3H]-spiperone; details: cloned rat receptor in CHO-K1 cells, [3H]-spiperone (107 Ci/mmol, 0.5 nM), eleven dilutions
# T1 construct: expressed in transfected cells; host or cells: CHO-K1
# Experimental: (§1) Competition binding experiments employed eleven dilutions of test compounds of Formula I competing with [^3 H]-5-(dipropylamino)-5,6-dihydro-4H-imidazo(4,5,1-ij)quinolin-2(1H)-one (R-enantiomer) ("86170") (62 Ci/mmol, 2nM) and [^3 H]-spiperone ("SPI") (107 Ci/mmol, 0.5 nM) for D2 and D3 binding sites, respectively. (Lahti, R. A., Eur. J. Pharmacol., 202, 289 (1991)) In each experiment, cloned rat receptors expressed in CHO-K1 cells were used. (Chio, C. L., Nature, 343, 266 (1990); and Huff, R. M., Mol. Pharmacol. 45, 51-60 (1993)).
# [2] = target: T2, dopamine D2 receptor (Rattus norvegicus, UniProt P61169); test: Competition binding at cloned rat dopamine D2 receptor (D2-DOP-CLONE) with [3H]-86170; details: cloned rat receptor in CHO-K1 cells, [3H]-86170 (62 Ci/mmol, 2 nM), eleven dilutions, read-out: Ki (Receptor binding, IC50 values)
# T2 construct: expressed in transfected cells; host or cells: CHO-K1
# Experimental: as §1
# [3] = Ki (Receptor binding, IC50 values)
# [4] = read-out: Ki (Receptor binding, IC50 values)
# T1 sequence (P19020 whole entry): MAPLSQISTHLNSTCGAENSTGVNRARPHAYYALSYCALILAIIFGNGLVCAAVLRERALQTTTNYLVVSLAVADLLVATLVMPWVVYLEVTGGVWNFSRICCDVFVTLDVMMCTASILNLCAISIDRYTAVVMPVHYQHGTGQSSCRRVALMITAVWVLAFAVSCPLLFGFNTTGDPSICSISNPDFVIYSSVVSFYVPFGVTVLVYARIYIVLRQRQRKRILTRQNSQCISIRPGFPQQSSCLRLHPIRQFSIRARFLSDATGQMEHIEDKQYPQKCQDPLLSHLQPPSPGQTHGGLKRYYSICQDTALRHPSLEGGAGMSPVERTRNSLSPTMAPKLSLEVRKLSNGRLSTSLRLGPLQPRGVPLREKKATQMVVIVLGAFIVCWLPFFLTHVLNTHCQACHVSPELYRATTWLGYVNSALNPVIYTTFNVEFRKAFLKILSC
# T2 sequence (P61169 whole entry): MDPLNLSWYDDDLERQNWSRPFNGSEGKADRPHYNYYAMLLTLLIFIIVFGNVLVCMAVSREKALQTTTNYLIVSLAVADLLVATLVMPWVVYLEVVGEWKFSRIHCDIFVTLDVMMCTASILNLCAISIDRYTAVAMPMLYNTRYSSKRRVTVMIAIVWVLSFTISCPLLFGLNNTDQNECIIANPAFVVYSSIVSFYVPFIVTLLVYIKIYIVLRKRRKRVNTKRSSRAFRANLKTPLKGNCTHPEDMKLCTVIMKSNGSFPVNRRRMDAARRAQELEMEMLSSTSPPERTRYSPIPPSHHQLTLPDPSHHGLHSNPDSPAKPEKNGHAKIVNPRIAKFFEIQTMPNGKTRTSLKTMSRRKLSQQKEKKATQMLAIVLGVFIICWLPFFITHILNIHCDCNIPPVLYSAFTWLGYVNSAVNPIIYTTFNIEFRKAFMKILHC
"Ki [1, 4]",Compound,"Ki [1, 3] [nM]",Ki [2] [nM]
,"CCCN(CCC)CCc1ccc(NS(=O)(=O)c2ccc(Cl)cc2)cc1 [Example 1, 2-[4-(4-chlorobenzenesulfonamido)phenyl]ethyl-1-dipropylamine]",3.7,629
34 nM,"CCCN(CCC)CCc1ccc(NS(=O)(=O)c2ccc(NC(C)=O)cc2)cc1 [Example 2, 2-[4-(4-acetamidobenzenesulfonamido)phenyl]ethyl-1-dipropylamine]",,1070
14 nM and 26 nM,"CCCNCCc1ccc(NS(=O)(=O)c2ccc(Cl)cc2Cl)cc1 [Example 3, 2-[4-(2,4-dichlorobenzenesulfonamido)phenyl]ethyl-1-propylamine]",,760
,"CCCNCCc1ccc(NS(=O)(=O)c2ccc(Cl)cc2)cc1 [Example 4, 2-[4-(4-chlorobenzenesulfonamido)phenyl]ethyl-1-propylamine]",18,677
28 nM,"CCCNCCc1ccc(NS(=O)(=O)c2ccc(OC(F)(F)F)cc2)cc1 [Example 5, 2-[4-(4-trifluoromethoxybenzenesulfonamido)phenyl]ethyl-1-propylamine]",,2390
165 nM,"CCCNCCc1ccc(NS(=O)(=O)c2ccc(F)cc2Cl)cc1 [Example 6, 2-[4-(2-chloro-4-fluorobenzenesulfonamido)phenyl]ethyl-1-propylamine]",,2180
,"CCCNCCc1ccc(NS(=O)(=O)c2ccc(Br)cc2)cc1 [Example 7, 2-[4-(4-bromobenzenesulfonamido)phenyl]ethyl-propylamine]",14,623
33 nM,"CCCNCCc1ccc(NS(=O)(=O)c2ccc(C(F)(F)F)cc2)cc1 [Example 8, 2-[4-[(4-trifluoromethyl)benzenesulfonamido]phenyl]ethyl-1-propylamine]",,1530
,"CCCNCCc1cccc(NS(=O)(=O)c2ccccc2F)c1 [Example 9, 2-[3-(2-fluorobenzenesulfonamido)phenyl]ethyl-1-propylamine]",54,645

Compound,"Ki [1, 4]","Ki [1, 3] [nM]",Ki [2] [nM]
"CCCNCCc1cccc(NS(=O)(=O)c2cccc(Cl)c2)c1 [Example 10, 2-[3-(3-chlorobenzenesulfonamido)phenyl]ethyl-1-propylamine]",111 nM,,1080
